In US12673921B2, “Substituted fluorine-containing imidazole salt compound, preparation method therefor, pharmaceutical composition thereof and use thereof” (XIAMEN VIVOHEALTHS TECHNOLOGY CO., LTD., priority 2019, dated 2026):

The compounds below were run on AMPK (assay: AMPK activity assay at cell level (western blot of p-AMPKα and p-ACC in MEFs)). Details: MEF cells, compound 10 nM, 2 h; multiple of the ratio relative to positive control AICAR (3 mM); band brightness by Image J.
Format: cell-based, mouse
Description: The ability of compounds to activate AMPK in mouse embryonic fibroblasts (MEFs) was determined, which could be specifically carried out by detecting the phosphorylation level (p-AMPKα) of threonine at the 172nd position of AMPK and the phosphorylation level (p-ACC) of serine at the 79th position of the susbtrate ACC1/ACC2 of AMPK (FIG. 1 and Table I) by western blot.
The specific method was as follows: • (1) MEFs with loxP insertion sequences or of wild-type were plated in a 6-well plate and cultured in DMEM containing 10% serum. If a gene needed to be knocked out at this time, when the density of the corresponding MEFs with loxP insertion sequences reached about 30%, an adenovirus capable of expressing cre should be added to the culture well followed by further culture for more than 24 h; • (2) When the cell density was close to 90%, the cells were provided with fresh DMEM, at the same time, a compound (final concentration 10 nM) was added to the cells, followed by culture for 2 h, with an equal volume of DMSO as the negative control, and the cells treated with the addition of AICAR (3 mM) as the positive control; • (3) After sucking up the culture solution, the cells were lysed with 200 μL of a cell lysate (its formulation was given below), then the cells were scraped from the culture dish, ultrasonicated, and subjected to low temperature centrifugation at 20000 g for 10 min; • (4) The supernatant and an equal volume of 2*SDS solution (its formulation was given below) were mixed, and subjected to SDS-PAGE in a concentration of 8%, then the protein was transferred to PVDF membrane; each PVDF membrane was blocked with 25 mL of skim milk for 1 h, and then rinsed with TBST buffer (its formulation was given below) 3 times for 10 min each time; • (5) AMPKα subunit primary antibody (Cell Signaling Technology, #2532), primary antibody of phosphothreonine at the 172nd position of AMPK (Cell Signaling Technology, #2535), ACC primary antibody (Cell Signaling Technology, #3662), or primary antibody of phosphoserine at the 79th position of ACC (Cell Signaling Technology, #3661) was diluted in a ratio of 1:1000 with a primary antibody dilution (its formulation was given below), reacted with the PVDF membrane at room temperature for 12 h, and then rinsed 3 times with TBST buffer; • (6) A 1:1000 dilution of HRP-conjugated goat anti-rabbit secondary antibody (Jackson ImmunoResearch, 111-035-003) was added, reacted at room temperature for 1 h, and then rinsed 3 times with TBST buffer; • (7) The PVDF membrane was dried, reacted in an ECL mixture (WesternBright ECL HRP substrate, Advansta) and subjected to exposure with medical X-ray, developed, finally rinsed, dried, and then scanned to obtain data related to AMPK activation.
The formulations of reagents used were: • Cell lysate: 20 mM Tris-base, pH 7.5, 150 mM NaCl, 1 mM EDTA, 1 mM EGTA, 2.5 mM Sodium pyrophosphate, 1 mM β-glycerolphosphate, 1% Triton X-100 (v/v); • 2*SDS solution: 20% Glycerol (v/v), 4% SDS (m/v), 10% β-mecaptoethanol (v/v), 0.01% Bromophenol blue (m/v); • TBST buffer: 4.84% Tris-base (m/v), 8% NaCl (m/v), 0.1% Tween-20 (v/v); • Primary antibody dilution: TBST buffer containing 5% BSA (v/v).

Row | SMILES | Degree of AMPK activation, p-ACC/ACC | Degree of AMPK activation, p-AMPKα/AMPK
1 | Br.Cc1n(CCCCCCCCCCCCCCCCF)cc[n+]1Cc1c(Cl)cccc1Cl [IA-2] | 0.73 | 1.00
2 | Cc1n(CCCCCCCCCCCCCCCCF)cc[n+]1Cc1c(Cl)cccc1Cl.[I-] [IA-3] | 0.83 | 0.69
3 | FC(F)(F)C(F)(F)C(F)(F)CCCCCCCCCCCn1cc[n+](Cc2c(Cl)cccc2Cl)c1.[Cl-] [IB-1] | 0.71 | 0.99
4 | Fc1cccc(Cl)c1C[n+]1ccn(CCCCCCCCCCCC(F)(F)C(F)(F)C(F)(F)F)c1.[Cl-] [IB-2] | 0.82 | 1.45
5 | COc1ccc(F)cc1C[n+]1ccn(CCCCCCCCCCCC(F)(F)C(F)(F)C(F)(F)F)c1.[Br-] [IB-3] | 0.64 | 1.70
6 | Cc1n(CCCCCCCCCCCC(F)(F)C(F)(F)C(F)(F)F)cc[n+]1Cc1c(F)cccc1Cl.[Cl-] [IB-5] | 0.70 | 1.85
7 | CC(C)c1n(CCCCCCCCCCCC(F)(F)C(F)(F)C(F)(F)F)cc[n+]1Cc1c(Cl)cccc1Cl.[Cl-] [IB-7] | 0.87 | 1.93
8 | CC(C)c1n(CCCCCCCCCCCC(F)(F)C(F)(F)C(F)(F)F)cc[n+]1Cc1c(F)cccc1Cl.[Cl-] [IB-8] | 0.90 | 1.23
9 | COc1ccc(F)cc1C[n+]1ccn(CCCCCCCCCCCC(F)(F)C(F)(F)C(F)(F)F)c1C(C)C.[Br-] [IB-9] | 0.27 | 1.07
10 | Cl.FC(F)(F)C(F)(F)C(F)(F)CCCCCCCCCCCn1cc[n+](Cc2c(Cl)cccc2Cl)c1C1CC1 [IB-10] | 0.35 | 1.94
11 | Fc1cccc(Cl)c1C[n+]1ccn(CCCCCCCCCCCC(F)(F)C(F)(F)C(F)(F)F)c1C1CC1.[Cl-] [IB-11] | 0.41 | 1.11
12 | Br.COc1ccc(F)cc1C[n+]1ccn(CCCCCCCCCCCC(F)(F)C(F)(F)C(F)(F)F)c1C1CC1 [IB-12] | 0.50 | 1.18
13 | Cl.FC(F)(F)C(F)(F)C(F)(F)C(F)(F)CCCCCCCCCCCn1cc[n+](Cc2c(Cl)cccc2Cl)c1 [IB-13] | 0.57 | 1.31
14 | Cl.Fc1cccc(Cl)c1C[n+]1ccn(CCCCCCCCCCCC(F)(F)C(F)(F)C(F)(F)C(F)(F)F)c1 [IB-14] | 0.50 | 1.57
15 | Cc1n(CCCCCCCCCCCC(F)(F)C(F)(F)C(F)(F)C(F)(F)F)cc[n+]1Cc1c(F)cccc1Cl.[Cl-] [IB-17] | 0.72 | 1.42
16 | Cc1n(CCCCCCCCCCCC(F)(F)C(F)(F)C(F)(F)C(F)(F)F)cc[n+]1Cc1c(Cl)cccc1Cl.[Br-] [IB-18] | 0.65 | 1.45
17 | COc1ccc(F)cc1C[n+]1ccn(CCCCCCCCCCCC(F)(F)C(F)(F)C(F)(F)C(F)(F)F)c1C.[Br-] [IB-20] | 0.82 | 1.22
18 | Cc1n(CCCCCCCCCCCC(F)(F)C(F)(F)C(F)(F)C(F)(F)F)cc[n+]1Cc1c(Cl)cccc1Cl.[I-] [IB-21] | 1.73 | 0.35
19 | Cc1n(CCCCCCCCCCCC(F)(F)C(F)(F)C(F)(F)C(F)(F)F)cc[n+]1Cc1c(F)cccc1Cl.[I-] [IB-22] | 1.08 | 0.44

Row | SMILES | Degree of AMPK activation, p-ACC/ACC | Degree of AMPK activation, p-AMPKα/AMPK
20 | COc1ccc(F)cc1C[n+]1ccn(CCCCCCCCCCCC(F)(F)C(F)(F)C(F)(F)C(F)(F)F)c1C.[I-] [IB-23] | 1.50 | 0.49
21 | CC(C)c1n(CCCCCCCCCCCC(F)(F)C(F)(F)C(F)(F)C(F)(F)F)cc[n+]1Cc1c(Cl)cccc1Cl.[Cl-] [IB-24] | 1.60 | 0.64
22 | CC(C)c1n(CCCCCCCCCCCC(F)(F)C(F)(F)C(F)(F)C(F)(F)F)cc[n+]1Cc1c(F)cccc1Cl.[Cl-] [IB-25] | 1.10 | 0.58
23 | COc1ccc(F)cc1C[n+]1ccn(CCCCCCCCCCCC(F)(F)C(F)(F)C(F)(F)C(F)(F)F)c1C(C)C.[Br-] [IB-26] | 1.04 | 0.94
24 | FC(F)(F)C(F)(F)C(F)(F)C(F)(F)CCCCCCCCCCCn1cc[n+](Cc2c(Cl)cccc2Cl)c1C1CC1.[Cl-] [IB-27] | 1.06 | 0.95
25 | COc1ccc(F)cc1C[n+]1ccn(CCCCCCCCCCCC(F)(F)C(F)(F)C(F)(F)C(F)(F)F)c1C1CC1.[Br-] [IB-29] | 0.81 | 0.76
26 | Cc1n(CCCCCCCCCCCC(F)(F)C(F)(F)C(F)(F)C(F)(F)C(F)(F)F)cc[n+]1Cc1c(Cl)cccc1Cl.[Br-] [IB-35] | 1.15 | 1.02
27 | Cc1n(CCCCCCCCCCCC(F)(F)C(F)(F)C(F)(F)C(F)(F)C(F)(F)F)cc[n+]1Cc1c(F)cccc1Cl.[I-] [IB-39] | 1.51 | 1.50
28 | COc1ccc(F)cc1C[n+]1ccn(CCCCCCCCCCCC(F)(F)C(F)(F)C(F)(F)C(F)(F)C(F)(F)F)c1C.[I-] [IB-40] | 1.65 | 1.06
29 | CC(C)c1n(CCCCCCCCCCCC(F)(F)C(F)(F)C(F)(F)C(F)(F)C(F)(F)F)cc[n+]1Cc1c(F)cccc1Cl.[Cl-] [IB-42] | 1.50 | 1.03
30 | Fc1cccc(Cl)c1C[n+]1ccn(CCCCCCCCCCCC(F)(F)C(F)(F)C(F)(F)C(F)(F)C(F)(F)F)c1C1CC1.[Cl-] [IB-45] | 2.22 | 0.54
31 | COc1ccc(F)cc1C[n+]1ccn(CCCCCCCCCCCC(F)(F)C(F)(F)C(F)(F)C(F)(F)C(F)(F)F)c1C1CC1.[Br-] [IB-46] | 1.73 | 0.57
32 | COc1ccc(F)cc1C[n+]1ccn(CCCCCCCCCCCC(F)(F)C(F)(F)C(F)(F)C(F)(F)C(F)(F)C(F)(F)F)c1C.[Br-] [IB-52] | 0.98 | 0.83
33 | CC(C)c1n(CCCCCCCCCCCC(F)(F)C(F)(F)C(F)(F)C(F)(F)C(F)(F)C(F)(F)F)cc[n+]1Cc1c(Cl)cccc1Cl.Cl [IB-53] | 1.23 | 0.76
34 | Br.COc1ccc(F)cc1C[n+]1ccn(CCCCCCCCCCCC(F)(F)C(F)(F)C(F)(F)C(F)(F)C(F)(F)C(F)(F)F)c1C(C)C [IB-55] | 1.98 | 0.87
35 | Cl.FC(F)(F)C(F)(F)C(F)(F)C(F)(F)C(F)(F)C(F)(F)CCCCCCCCCCCn1cc[n+](Cc2c(Cl)cccc2Cl)c1C1CC1 [IB-56] | 0.99 | 0.85
36 | Cc1n(CCCCCCCCCCCC(F)(F)C(F)(F)C(F)(F)C(F)(F)C(F)(F)F)cc[n+]1Cc1c(Cl)cccc1Cl [IB-59] | 1.04 | 0.98
37 | Cc1n(CCCCCCCCCCCC(F)(F)C(F)(F)C(F)(F)C(F)(F)C(F)(F)F)cc[n+]1Cc1c(Cl)cccc1Cl [IB-60] | 1.01 | 0.94
